PubChem BioAssay (NCI)
Values joined by “and” are separate entries in the source; they are usually repeats but may differ in a detail not shown here. Identical values can stand only once.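 Dose response: 5 concentrations. Exposure: 48 h. Format: 96-well plates. Endpoint: linear interpolation; highest concentration if not reached. GI50 is the concentration that inhibits growth by half. The concentration for full growth arrest is given as TGI.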

Columns and labels:
Test in all cases: growth of human tumour cells (NCI), 48 h
HL-60(TB) leukemia = tested on: HL-60(TB) leukemia
HOP-92 NSCLC = tested on: HOP-92 NSCLC
K-562 leukemia = tested on: K-562 leukemia
LOX IMVI melanoma = tested on: LOX IMVI melanoma
OVCAR-4 ovarian = tested on: OVCAR-4 ovarian
SF-268 CNS = tested on: SF-268 CNS
SK-MEL-28 melanoma = tested on: SK-MEL-28 melanoma
SK-MEL-5 melanoma = tested on: SK-MEL-5 melanoma
SN12C renal = tested on: SN12C renal
T-47D breast = tested on: T-47D breast

Structure (SMILES) | GI50 (HL-60(TB) leukemia) [µM] | TGI (HL-60(TB) leukemia) [µM] | GI50 (HOP-92 NSCLC) [µM] | TGI (HOP-92 NSCLC) | GI50 (K-562 leukemia) [µM] | TGI (K-562 leukemia) | GI50 (LOX IMVI melanoma) [µM] | TGI (LOX IMVI melanoma) | GI50 (OVCAR-4 ovarian) [µM] | TGI (OVCAR-4 ovarian) [µM] | GI50 (SF-268 CNS) [µM] | TGI (SF-268 CNS) [µM] | GI50 (SK-MEL-28 melanoma) [µM] | TGI (SK-MEL-28 melanoma) [µM] | GI50 (SK-MEL-5 melanoma) [µM] | TGI (SK-MEL-5 melanoma) | GI50 (SN12C renal) [µM] | TGI (SN12C renal) | GI50 (T-47D breast) [µM] | TGI (T-47D breast) [µM]
COC(=O)c1cncc(/C=C/c2c(C)cc(O)cc2C)c1 | 2.25 | 5.96 | 4.97 | > 22.1 µM | 2.32 | > 19 µM | 7.41 | > 18 µM | 8.11 | > 25 | 14.1 | > 25 | > 12.7 | 24.8 | 6.78 | > 16.9 µM | 11.2 | > 25 µM | 11 | > 22.2
O=C(/C=C/c1cccc(O)c1)c1cccc(-n2cc(-c3ccccc3)[nH]c2=O)c1 | 3.27 | 17.5 | 3.57 | 13.8 µM | 2.52 | > 24.8 µM | 1.81 | 3.44 µM | 4.15 | > 37 | 3.66 | 12.3 | 8.07 | 20.6 | 2.41 | 6.59 µM | 3.01 | 11.3 µM | 3.14 | 12.1
COC(=O)CCCCC(=O)c1c(C)[nH]c(/C=C2\N=C(c3ccc[nH]3)C=C2OC)c1C | 0.273 | 1.03 | 0.414 | 1.5 µM | 0.403 | 1.77 µM | 0.0416 | 0.135 µM | 1.14 | 2.47 | 0.802 | 2.17 | 1.17 | 2.47 | 0.357 | 1.37 µM | 1.1 | 2.47 µM | 0.723 | 2.36
Cc1cc(N=Nc2ccccc2C)ccc1N | 0.486 |  | 7.41 | 25.1 µM and 26.8 µM | 12.8 | 32.8 µM and > 100 µM | 13.9 | 25 µM and 28.9 µM |  | 62.3 | 4.36 | 33.6 |  | 44.3 | 14.1 | 29.2 µM and 27.4 µM | 2.86 | 27.4 µM and 16.3 µM | 13.3 | 78.5
COC1C(N)C(OC2C(Oc3cccc4c(O)c5c(=O)oc6ccc(C)c7c(=O)oc(c34)c5c67)OC(C)C(O)C2(C)O)OC(C)C1O (stereo not given) |  | 9.48 |  | 0.0653 µM |  | 1.56 µM |  | 0.28 µM |  | 2.28 |  | 0.104 |  | 0.34 |  | 0.265 µM |  | 0.547 µM |  | 1.43
Cn1cc(C2=C(c3cccc(OC[C@@H](O)CO)c3)C(=O)NC2=O)c2ccccc21 | > 25 | > 25 | > 25 | > 25 µM | 17.3 | > 25 µM | 14.8 | > 25 µM | > 16.4 | > 25 | > 25 | > 25 | > 25 | > 25 | > 8.72 | > 25 µM | > 23 | > 25 µM | > 22.9 | > 25
C[N+](C)(C)CC1CCCC1=O (stereo not given) |  | > 20.2 |  | 2.66 µM |  | > 100 µM |  | 2.33 µM |  | 1.8 |  | 20.8 |  | 3.72 |  | 12.5 µM |  | 5.56 µM |  | 0.448
N#CCCN1C/C(=C/c2ccc(Cl)cc2)C(=O)/C(=C/c2ccc(Cl)cc2)C1 | 2.12 | 7.38 | 1.81 | 5 µM | 0.378 | > 100 µM | 0.303 | 1.13 µM | 3.01 | 15.7 | 1.51 | 3.09 | 1.91 | 3.9 | 1.59 | 2.98 µM | 1.44 | 3.39 µM | 3.12 | 13.8
C#CCNC(=O)[C@H](CC)[C@H]1CC[C@H](C)[C@H]([C@@H](C)[C@H](O)[C@H](C)C(=O)[C@H](CC)C2O[C@]3(C=CC(=O)[C@]4(CC[C@@](C)([C@H]5CC[C@](O)(CC)[C@H](C)O5)O4)O3)[C@H](C)C[C@@H]2C)O1 (stereo not given in full) | 2.28 | 5.45 | 1.37 | 6.62 µM |  |  | 2.06 | 4.83 µM | 2.91 | > 100 | 2.08 | 6.37 | 1.87 | 3.96 | 1.69 | 3.11 µM | 2.29 | 6.58 µM | 2.36 | 9
CC(=O)NCc1cccc(C#Cc2cncnc2Nc2ccc(OCc3cccc(F)c3)c(Cl)c2)c1 | 7.76 | > 22.5 | 5.66 | > 25 µM | 10.1 | > 25 µM | 9.44 | > 25 µM | 12.9 | > 25 | 16.7 | > 25 | 19.8 | > 25 | 9.44 | > 25 µM | 10.6 | > 25 µM | 9.68 | > 25
Oc1c(I)cc(I)c2cccnc12 | 6.82 | > 100 | 8.48 | 83.3 µM | 5.01 | > 100 µM | 5.13 | 89.2 µM | 3.94 | > 100 | 5.09 | 48.3 | 13.2 | > 100 | 2.4 | 16.5 µM | 6.67 | 45.5 µM | 2.88 | 15.6
Oc1cccc2ccc(N/N=C/c3cc(CN4CCOCC4)c(O)c4ncccc34)nc12 | 0.0298 | 1.49 | 0.0212 | 0.0678 µM | 0.0152 | 6.03 µM | 0.0426 | 1.41 µM | 0.0339 | 2.14 | 0.0372 | 13.4 | 0.0634 | 6.19 | 0.0124 | 0.0375 µM | 0.0348 | 7.82 µM | 0.0274 | 0.682
COc1cc(/C=C/C(=O)c2cccc(-n3cc(-c4ccc(Cl)cc4)[nH]c3=O)c2)cc(OC)c1OC | 15.7 | > 100 | > 100 | > 100 µM | 3.69 | > 100 µM | 1.72 | 3.2 µM | 11.4 | 38 | 5.07 | 39.2 | 10.9 | 25.6 | 8.7 | 23.7 µM | 5.14 | 28.5 µM | 6.65 | 51.5
